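Method: 48-hour compound exposure of cells in 96-well plates, five concentrations, linear interpolation of endpoints. GI50 = concentration required for 50% inhibition of growth.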 The source made the active and inactive calls. No stated cut-off is given here; in the data, active = GI50 up to about 1.1 µM and inactive = higher.
Assays:
Experiment in all cases: NCI anticancer screen, dose series, 48 h
786-0 = test system: 786-0
A498 = test system: A498
DU-145 = test system: DU-145
HOP-62 = test system: HOP-62
Hs-578T = test system: Hs-578T
KM12 = test system: KM12
MCF7 = test system: MCF7
MDA-MB-231 = test system: MDA-MB-231
MDA-MB-435 = test system: MDA-MB-435
NCI-H226 = test system: NCI-H226
NCI-H522 = test system: NCI-H522
OVCAR-3 = test system: OVCAR-3
SF-539 = test system: SF-539
SK-MEL-2 = test system: SK-MEL-2
SN12C = test system: SN12C
SNB-19 = test system: SNB-19
SW-620 = test system: SW-620
U-251 = test system: U-251
UACC-257 = test system: UACC-257
CAKI-1 = test system: CAKI-1

Measured: GI50

NC(=S)N/N=C1\CCCCC1C(O)(C(F)(F)Cl)C(F)(F)Cl (stereo unspecified)
inactive: 786-0 > 10 µM | A498 > 10 µM | DU-145 > 10 µM | HOP-62 > 10 µM | Hs-578T > 10 µM | KM12 > 10 µM | MCF7 > 10 µM | MDA-MB-231 > 10 µM | MDA-MB-435 > 10 µM | NCI-H226 > 10 µM | NCI-H522 > 10 µM | OVCAR-3 > 10 µM | SF-539 > 10 µM | SK-MEL-2 > 10 µM | SN12C > 10 µM | SNB-19 > 10 µM | SW-620 > 10 µM | U-251 > 10 µM | UACC-257 > 10 µM

CC1OC(O[C@H]2C3C=CO[C@@H](OC4OC(CO)C(O)C(O)C4O)C3[C@@]3(COC(=O)/C=C/c4ccc(O)cc4)O[C@@H]23)C(O)C(O)C1O (stereo partly specified)
inactive: 786-0 > 100 µM | A498 > 100 µM | CAKI-1 > 100 µM | DU-145 > 100 µM | HOP-62 > 100 µM | Hs-578T > 100 µM | KM12 > 100 µM | MCF7 > 100 µM | MDA-MB-231 > 100 µM | MDA-MB-435 > 100 µM | NCI-H226 > 100 µM | NCI-H522 > 100 µM | OVCAR-3 > 100 µM | SK-MEL-2 > 100 µM | SN12C > 100 µM | SNB-19 > 100 µM | SW-620 > 100 µM | U-251 > 100 µM | UACC-257 > 100 µM

COc1ccc2c(c1)/C(=C\c1c(Cl)nc3n1CCS3)C(=O)N2
inactive: 786-0 7.83 µM | A498 4.89 µM | CAKI-1 7.48 µM | DU-145 11.8 µM | HOP-62 6.35 µM | Hs-578T 11.2 µM | KM12 2.62 µM | MCF7 4.42 µM | MDA-MB-231 5.14 µM | MDA-MB-435 1.29 µM | NCI-H522 3.73 µM | OVCAR-3 2.77 µM | SF-539 4.65 µM | SN12C 10.8 µM | SNB-19 14.6 µM | SW-620 4.94 µM | U-251 5.37 µM | UACC-257 5.48 µM

N=C(N)NS(=O)(=O)c1ccc(NC(=O)c2cccc3c(NNc4ccc(S(=O)(=O)N=C(N)N)cc4)c4ccccc4nc23)cc1
inactive: 786-0 44.2 µM | CAKI-1 > 100 µM | DU-145 > 100 µM | HOP-62 > 100 µM | Hs-578T 54.7 µM | KM12 > 100 µM | MCF7 29.9 µM | MDA-MB-231 46.6 µM | MDA-MB-435 42.3 µM | NCI-H226 91.8 µM | NCI-H522 25.6 µM | OVCAR-3 38.2 µM | SF-539 > 100 µM | SK-MEL-2 16.9 µM | SN12C > 100 µM | SNB-19 76.7 µM | SW-620 48.9 µM | U-251 28.4 µM | UACC-257 > 100 µM

O=C1NI(C#Cc2ccccc2)c2ccccc21
inactive: 786-0 > 100 µM | A498 > 100 µM | CAKI-1 > 100 µM | DU-145 > 100 µM | HOP-62 > 100 µM | Hs-578T > 100 µM | KM12 95.1 µM | MCF7 22.2 µM | MDA-MB-231 > 100 µM | MDA-MB-435 > 100 µM | NCI-H226 > 100 µM | OVCAR-3 > 100 µM | SF-539 > 100 µM | SK-MEL-2 > 100 µM | SN12C > 100 µM | SNB-19 > 100 µM | SW-620 > 100 µM | U-251 60.3 µM | UACC-257 > 100 µM

CCCCCCCCCCCCCCCCCC(=O)OCC(COC1OC(COP(=O)(O)O)C(O)C(O)C1O)OC(=O)CCCCCCCCCCCCCCCCC (stereo unspecified)
inactive: 786-0 7.94 µM | A498 6.03 µM | CAKI-1 9.73 µM | DU-145 9.62 µM | HOP-62 8.26 µM | Hs-578T 6.14 µM | KM12 6.27 µM | MCF7 8.38 µM | MDA-MB-231 3.04 µM | MDA-MB-435 9.71 µM | NCI-H226 4.21 µM | OVCAR-3 8.87 µM | SF-539 9.44 µM | SN12C 7 µM | SNB-19 8 µM | SW-620 10.3 µM | U-251 6.71 µM | UACC-257 8.61 µM

COc1cc(/C=C2/C[C@H]3[C@@H]4CCC5=CC(=O)CC[C@]5(C)[C@H]4CC[C@]3(C)NC2=O)cc(OC)c1OC
inactive: 786-0 48.6 µM | A498 11.6 µM | CAKI-1 25.9 µM | DU-145 21 µM | HOP-62 27.9 µM | Hs-578T 23 µM | KM12 26.7 µM | MCF7 17.3 µM | MDA-MB-231 19.7 µM | MDA-MB-435 19.5 µM | NCI-H226 28.8 µM | NCI-H522 14.1 µM | OVCAR-3 43.7 µM | SK-MEL-2 24.8 µM | SN12C 22.1 µM | SNB-19 45 µM | SW-620 36.7 µM | U-251 19.5 µM | UACC-257 20.7 µM
